Laboratory results from patent US10016519B2, “18F-tagged inhibitors of prostate specific membrane antigen (PSMA), their use as imaging agents and pharmaceutical agents for the treatment of prostate cancer” (DEUTSCHES KREBSFORSCHUNGSZENTRUM, priority 2014, dated 2018).

Key:
PSMA = biological target: T1, PSMA (Homo sapiens, UniProt Q04609); assay: Competitive cell binding assay (binding affinity); conditions: LNCaP cells, competition against 68Ga-labeled [Glu-urea-lys(Ahx)]2-HBED-CC radioligand, 0-5000 nM analyte
T1 construct: host or cells: LNCaP
T1 sequence (Q04609 whole entry): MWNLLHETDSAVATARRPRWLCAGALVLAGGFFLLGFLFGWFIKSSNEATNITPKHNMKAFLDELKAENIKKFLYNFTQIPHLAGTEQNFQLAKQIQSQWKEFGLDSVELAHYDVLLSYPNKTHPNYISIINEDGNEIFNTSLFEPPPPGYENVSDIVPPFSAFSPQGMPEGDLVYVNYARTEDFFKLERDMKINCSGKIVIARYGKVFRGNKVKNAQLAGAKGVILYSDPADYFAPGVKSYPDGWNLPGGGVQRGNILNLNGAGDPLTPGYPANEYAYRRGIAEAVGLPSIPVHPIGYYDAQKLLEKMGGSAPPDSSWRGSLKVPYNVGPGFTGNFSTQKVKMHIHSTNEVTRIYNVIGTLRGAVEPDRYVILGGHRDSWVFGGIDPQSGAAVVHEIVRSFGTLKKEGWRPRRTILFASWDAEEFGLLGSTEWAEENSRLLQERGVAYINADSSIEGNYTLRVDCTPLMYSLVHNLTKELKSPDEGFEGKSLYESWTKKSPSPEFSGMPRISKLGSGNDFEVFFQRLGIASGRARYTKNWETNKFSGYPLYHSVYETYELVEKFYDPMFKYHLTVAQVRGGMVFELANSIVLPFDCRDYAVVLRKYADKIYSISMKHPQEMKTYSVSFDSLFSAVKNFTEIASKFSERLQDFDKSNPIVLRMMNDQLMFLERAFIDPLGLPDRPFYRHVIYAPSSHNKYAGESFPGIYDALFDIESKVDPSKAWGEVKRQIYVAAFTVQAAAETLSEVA
Procedure: (§1) For binding studies and in vivo experiments LNCaP cells (metastatic lesion of human prostatic adenocarcinoma, ATCC CRL-1740) were cultured in RPMI medium supplemented with 10% fetal calf serum and Glutamax (PAA, Austria). During cell culture, cells were grown at 37° C. in an incubator with humidified air, equilibrated with 5% CO2. The cells were harvested using trypsin-ethylenediaminetetraacetic acid (trypsin-EDTA; 0.25% trypsin, 0.02% EDTA, all from PAA, Austria) and washed with PBS.
The competitive cell binding assay and internalization experiments were performed as described previously (Eder, M. et al., Bioconj. Chem 2012, 23, 688-697) Briefly, the respective cells (10^5 per well) were incubated with the radioligand (^68Ga-labeled [Glu-urea-lys(Ahx)]2-HBED-CC (Schafer, M. et al., EJNMMI Res. 2012; 2, 23) in the presence of 12 different concentrations of analyte (0-5000 nM, 100 μL/well). After incubation, washing was carried out using a multiscreen vacuum manifold (Millipore, Billerica, Mass.). Cell-bound radioactivity was measured using a gamma counter (Packard Cobra II, GMI, Minnesota, USA). The 50% inhibitory concentration (IC^50) was calculated by fitting the data using a nonlinear regression algorithm (GraphPad Software).
Experiments were performed three times. Reference is made to Table A below.

LNCaP cells = assay: Specific cell uptake and internalization; assay type: cell-based, human; conditions: for Internalized fraction: (Internalized activity/total activity)*100, LNCaP cells; for Cell surface / Internalised: LNCaP cells, 30 nM 18F-labeled compound, 45 min, 37° C., specific (blocking with 500 μM PMPA), mean±SD n=3
Procedure: FIG. 8: Internalization of compounds PSMA1001/1002/1003. All compounds were labeled with ^18F, and their specific cell surface binding and internalization properties on LNCaP cells were investigated. Specific cell uptake was determined by blocking with 500 μM-PMPA. Values are expressed as % of applied radioactivity bound to 10^5 cells. Data are expressed as mean±SD (n=3).
as §1
To determine the specific cell uptake and internalization, 10^5 cells were seeded in poly-L-lysine coated 24-well cell culture plates 24 h before incubation. After washing, the cells were incubated with 30 nM of the radiolabeled compounds for 45 min at 37° C. Specific cellular uptake was determined by competitive blocking with 2-(phosphonomethyl)pentanedioic acid (500 μM final concentration, PMPA, Axxora, Loerrach, Germany). Cellular uptake was terminated by washing 3 times with 1 mL of ice-cold PBS. Cells were subsequently incubated twice with 0.5 mL glycine-HCl in PBS (50 mM, pH=2.8) for 5 min to remove the surface-bound fraction. The cells were washed with 1 mL of ice-cold PBS and lysed using 0.3 N NaOH (0.5 mL). The surface-bound and the internalized fractions were measured in a gamma counter. The cell uptake was calculated as percent of the initially added radioactivity bound to 10^5 cells [% ID/10^5 cells].

[1] = test system: mice bearing LNCaP tumor xenografts; assay: Dynamic microPET imaging; assay type: in vivo
Procedure: FIG. 9: PET imaging of PSMA-1001. Whole-body coronal microPET images of an athymic male nude mice bearing LNCaP tumor xenografts. The tumor-targeting efficacy and pharmacokinetic properties of ^18F-PSMA-1001 were evaluated by dynamic microPET scans. Approximately 15 MBq/mouse were injected. […] The values are expressed as mean SUV (standardized uptake values).
Whole-body coronal microPET images of an athymic male nude mice bearing LNCaP tumor xenografts. […] Approximately 15 MBq/mouse were injected. […] The values are expressed as mean SUV (standardized uptake values).
(§2) For in vivo experiments, 8 week old BALB/c nu/nu mice were subcutaneously inoculated into the right trunk with 5×10^6 LNCaP- or PC3-cells in 50% Matrigel. When the size of tumor was approximately 1 cm^3, the radiolabeled compound was injected via the tail vein (ca. 30 MBq, 60 pmol for μPET imaging; ca. 1 MBq, 60 pmol for organ distribution).
For the microPET studies, 10-25 MBq of the radiolabeled compounds in a volume of 0.15 mL (˜60 pmol) were injected via a lateral tail vein into mice bearing LNCaP tumor xenografts. The anesthetized animals (2% sevoflurane, Abbott, Wiesbaden, Germany) were placed in prone position into the Inveon small animal PET scanner (Siemens, Knoxville, Tenn., USA) to perform dynamic microPET scans and 20 min-static scans.

[2] = test system: BALB/c nu/nu mice bearing LNCaP tumor; assay: Organ distribution; assay type: in vivo; conditions: 1 h after injection, tail vein, 60 pmol, n=3
Procedure: as §2
The F-18 labeled compounds were injected via tail vein (1-2 MBq per mouse; 60 pmol). At 1 h after injection, the animals were sacrificed. Organs of interest were dissected, blotted dry, and weighed. The radioactivity was measured with a gamma counter (Packard Cobra II, GMI, Minnesota, USA) and calculated as % ID/g.

O=C(O)CC[C@H](NC(=O)N[C@@H](CCCCNC(=O)[C@H](Cc1ccc2ccccc2c1)NC(=O)[C@H]1CC[C@H](CNC(=O)c2ccc([18F])nc2)CC1)C(=O)O)C(=O)O [PSMA-1001, (Glu)-(Urea)-((D)-Lys)-(2-Naphthylalanine)-(4-(Aminomethyl)cyclohexanecarboxylic acid)-FN]
IC50 (PSMA): 3 nM
Internalized fraction (LNCaP cells): 26%
Cell surface (LNCaP cells): 8.4 ± 1.9 % ID/10^5 cells
Internalised (LNCaP cells): 2.9 ± 0.3 % ID/10^5 cells
Tumor standardized uptake value (SUVmean,BW) ([1]; LNCaP tumor xenograft, time not stated): 0.5
Uptake in the kidneys (microPET) ([1]; LNCaP xenograft mice): increasing uptake in the kidneys
Uptake in the liver (microPET) ([1]; LNCaP xenograft mice): high uptake in the liver

O=C(O)CC[C@H](NC(=O)N[C@@H](CCCCNC(=O)[C@H](Cc1ccc2ccccc2c1)NC(=O)c1ccc(CNC(=O)c2ccc([18F])nc2)cc1)C(=O)O)C(=O)O [PSMA-1003, (Glu)-(Urea)-((D)-Lys)-(2-Naphthylalanine)-(4-(Aminomethyl)benzoic acid)-FN]
Organ distribution, Blood, Mean [2]: 2.02 % ID/g
Organ distribution, Brain, Mean [2]: 0.07 % ID/g
Organ distribution, Heart, Mean [2]: 0.25 % ID/g
Organ distribution, Kidney, Mean [2]: 32.37 % ID/g
Organ distribution, LNCaP Tumor, Mean [2]: 3.4 % ID/g
Organ distribution, Liver, Mean [2]: 3.02 % ID/g
Organ distribution, Lung, Mean [2]: 0.65 % ID/g
Organ distribution, Muscle, Mean [2]: 0.25 % ID/g
Organ distribution, Small intestine, Mean [2]: 8.49 % ID/g
Organ distribution, Spleen, Mean [2]: 1.96 % ID/g

O=C(O)CCC(NC(=O)NC(CCCCNC(=O)C(Cc1ccc2ccccc2c1)NC(=O)c1ccc(CNC(=O)CO/N=C\C([18F])C(O)C(O)C(O)CO)cc1)C(=O)O)C(=O)O (stereo not shown) [PSMA-1005, (Glu)-(Urea)-(Lys)-(2Nal)-(Bn)-(Acetyl-FDG-Oxim)]
IC50 (PSMA): 7 nM
Internalized fraction (LNCaP cells): 63%
Cell surface (LNCaP cells): 1.1 ± 0.5 % ID/10^5 cells
Internalised (LNCaP cells): 0.7 ± 0.4 % ID/10^5 cells

(Glu)-(Urea)-((D)-Lys)-(2-Naphthylalanine)-(4-(Aminomethyl)benzoic acid)-FN [PSMA-1003]
IC50 (PSMA): 3 nM
Internalized fraction (LNCaP cells): 38%
Cell surface (LNCaP cells): 11.7 ± 1.2 % ID/10^5 cells
Internalised (LNCaP cells): 7.1 ± 0.8 % ID/10^5 cells
